Laboratory results as given in US8784849B2, “Hydroxyapatite-targeting poly(ethylene glycol) and related polymers” (Nektar Therapeutics, priority 2000, dated 2014).

Assays:
[1] = Binding of PEG(2,000)-α-AHPDP-ω-protein to hydroxyapatite in vitro; conditions: 37° C., 5 mM sodium phosphate buffer pH 7.2; for adsorption to hydroxyapatite (in words): 1^1/2 hour incubation; for percentage adsorbed to hydroxyapatite: by 1^1/2 hour incubation
Description: Hydroxyapatite (Fast Flow, Fluka, 120 mg) was equilibrated in 1 ml of 5 mM sodium phosphate buffer, pH 7.2 for 24 hours at 37° C. Native lysozyme or the PEG-lysozyme conjugate was mixed with the hydroxyapatite suspension in a 1:1 volume ratio and stirred at 37° C. Samples were taken from the mixture at various time points and analyzed for the percentage of unbound protein or PEG-protein conjugate by gel permeation chromatography. […] All samples had similar protein concentrations.

[2] = Binding of PEG-AHPDP derivatives to hydroxyapatite in vitro; conditions: 37° C., 5 mM sodium phosphate buffer pH 7.2
Description: Hydroxyapatite (Fast Flow, Fluka, 12 mg) was equilibrated in 1 ml of 5 mM sodium phosphate buffer, pH 7.2 for 24 hours at 37° C.

[3] = in vivo; cited from earlier work
[4] = Excretion study of 125I-labelled PEG derivatives in mice; assay type: in vivo, Male ICR mice; conditions: for average % [125I] captured (urine and feces, % of total counts injected): 2 μCi i.v. tail vein, n=6; for radiolabeled compound excreted in the urine: 8 hr collection, share of captured radiolabel
Description: PEG(2,000)-α-L-tyrosine-ω-AHPDP and mPEG(2,000)-α-L-tyrosine were iodinated using a standard chloramine-T procedure (Bolton, Methods Enzymol. 124: 18-29, 1986). In brief, a 15 μL aliquot of PEG(2,000)-α-L-tyrosine-ω-AHPDP or mPEG(2,000)-α-L-tyrosine (2 μg/μL total weight) was mixed with 50 μL of […] phosphate buffer. To this was added 1 mCi of NaI^125 and 10 μL of Chloramine-T (1 μg/μL). The mixture was finger vortexed for 30s followed by addition of 100 μL-Cys (2 µg/µL), followed by another 30s of finger vortexing. The purification was carried out by reverse-phase chromatography. The samples were eluted at 37° C. using a curvilinear gradient of 0.1% trifluroacetic acid (TFA) in acetonitrile (19-63%) versus 0.1% aqueous TFA over 30 min at 1.5 ml.min^−1.
Male ICR mice (20-25 g) were administered either 2 μCi of PEG(2,000)-α-L-tyrosine-ω-AHPDP or mPEG(2,000)-α-L-tyrosine via tail vein injection (100 μL; i.v.). The mice were placed into metabolism cages and urine and feces were collected at the following time points (1, 2, 3, 4, 6, & 8 hr post-injection) (n=6).

Molecule: 1-PEGmer: PEG-lysozyme multimer with one PEG(2,000)-α-AHPDP chain, separated by size exclusion [Example 1-PEGmer]
- adsorption to hydroxyapatite (in words) [1]: limited adsorption

Molecule: 2-PEGmer: PEG-lysozyme multimer with two PEG(2,000)-α-AHPDP chains, separated by size exclusion [Example 2-PEGmer]
- percentage adsorbed to hydroxyapatite [1]: 100%

Molecule: 3-PEGmer: PEG-lysozyme multimer with three PEG(2,000)-α-AHPDP chains, separated by size exclusion [Example 3-PEGmer]
- percentage adsorbed to hydroxyapatite [1]: 100%

Molecule: NCCC(O)(P(=O)(O)O)P(=O)(O)O [AHPDP, 3-amino-1-hydroxypropane-1,1-diphosphonic acid, reference compound]
- adsorption half-life on hydroxyapatite [2]: around 1 min

Molecule: CC(O)(P(=O)(O)O)P(=O)(O)O [Etidronate]
- half-life in bone [3]: greater than 90 days

Molecule: Native lysozyme: chicken egg white lysozyme, MW=14,300 Da, used as a model protein [reference compound]
- adsorption to hydroxyapatite (in words) [1]: did not adsorb

Molecule: PEG(2,000)-α-methoxy-ω-L-tyrosine
- adsorption to hydroxyapatite (in words) ([2]; 0.1-1.0 mg/ml): did not show any adsorption
- average % [125I] captured (urine and feces, % of total counts injected) ([4]; 8 hour time course): 47.5%
- radiolabeled compound excreted in the urine ([4]; i.v.): greater than 95%

Molecule: PEG(2,000)-α-tyrosine-ω-AHPDP [PEG(2,000)-α-L-tyrosine-ω-AHPDP]
- adsorption half-life on hydroxyapatite [2]: 19 min
- average % [125I] captured (urine and feces, % of total counts injected) ([4]; 8 hour time course): 7.7%
- [125I] retained in the body versus mPEG(2,000)-α-L-tyrosine (in words) ([4]; i.v., 8-hour period): significantly greater percentage
- fold lower percentage of [125I] captured than mPEG(2,000)-α-L-tyrosine ([4]; i.v., 8 hour time course): 5 fold
- radiolabeled compound excreted in the urine ([4]; i.v.): ~95%

Molecule: PEG(5,000)-α-amine-ω-AHPDP
- adsorption half-life on hydroxyapatite [2]: 45 min
